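Tested at 5 concentrations; 48 h exposure; 96-well plates; endpoints linearly interpolated, else capped at highest concentration. GI50: concentration for 50% inhibition of growth.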 Active and inactive are the calls of the source. No stated cut-off is given here; in the data, active = GI50 up to about 1.1 µM and inactive = higher.
Assays:
Assay in all cases: NCI-60 cell line screen, 48 h
[1] = system: 786-0
[2] = system: A498
[3] = system: ACHN
[4] = system: EKVX
[5] = system: HOP-92
[6] = system: IGROV-1
[7] = system: LOX IMVI
[8] = system: MDA-N
[9] = system: MOLT-4
[10] = system: NCI-H226
[11] = system: OVCAR-3
[12] = system: RPMI-8226
[13] = system: SK-MEL-28
[14] = system: SK-MEL-2
[15] = system: SK-MEL-5
[16] = system: SK-OV-3
[17] = system: SNB-75
[18] = system: SW-620
[19] = system: UACC-257
[20] = system: UO-31

Row | SMILES | GI50 [1] | GI50 [2] | GI50 [3] | GI50 [4] | GI50 [5] | GI50 [6] | GI50 [7] | GI50 [8] | GI50 [9] | GI50 [10] | GI50 [11] | GI50 [12] | GI50 [13] | GI50 [14] | GI50 [15] | GI50 [16] | GI50 [17] | GI50 [18] | GI50 [19] | GI50 [20]
1 | Cn1c(=O)c2ccccc2[n+]2c(-c3cccc([N+](=O)[O-])c3)csc12 | 54.3 µM (inactive) | 58.9 µM (inactive) | > 100 µM (inactive) | 25.2 µM (inactive) | > 100 µM (inactive) | 68.1 µM (inactive) | > 100 µM (inactive) | 76.6 µM (inactive) | 24.2 µM (inactive) | > 100 µM (inactive) | 39.4 µM (inactive) | 28.1 µM (inactive) | > 100 µM (inactive) | 36.4 µM (inactive) | 59.7 µM (inactive) | 73.6 µM (inactive) | 12.9 µM (inactive) | > 100 µM (inactive) | > 100 µM (inactive) | > 100 µM (inactive)
2 | COC(=O)C1(c2cc3ccccc3n2S(=O)(=O)c2ccccc2)CC2C=CC1NC2 (stereo not given) | 1.94 µM (inactive) | 3.09 µM (inactive) | 1.84 µM (inactive) | 4.03 µM (inactive) | 1.52 µM (inactive) | 1.34 µM (inactive) | 1.74 µM (inactive) | 2.13 µM (inactive) | 1.62 µM (inactive) | 8.97 µM (inactive) | 2.29 µM (inactive) | 0.933 µM (active) | 2.67 µM (inactive) | 1.77 µM (inactive) | 6.12 µM (inactive) | 3.41 µM (inactive) | 3.8 µM (inactive) | 2.91 µM (inactive) | 2.22 µM (inactive) | 1.48 µM (inactive)
3 | Cc1ccc(OCC2OC(n3cnc4c(Cl)nc(Nc5cc(Cl)cc(Cl)c5)nc43)CC2Oc2ccc(C)cc2)cc1 (stereo not given) | > 100 µM (inactive) | > 100 µM (inactive) | > 100 µM (inactive) | > 100 µM (inactive) | > 100 µM (inactive) | > 100 µM (inactive) | > 100 µM (inactive) | > 100 µM (inactive) | > 100 µM (inactive) | > 100 µM (inactive) | > 100 µM (inactive) | > 100 µM (inactive) | > 100 µM (inactive) | > 100 µM (inactive) | > 100 µM (inactive) | > 100 µM (inactive) | 17.4 µM (inactive) | > 100 µM (inactive) | > 100 µM (inactive) | > 100 µM (inactive)
4 | O=S(=O)(/N=S(/Nc1ccccc1)C(F)(F)Cl)c1ccccc1 (stereo not given) | > 100 µM (inactive) | > 100 µM (inactive) | > 100 µM (inactive) | > 100 µM (inactive) | > 100 µM (inactive) | > 100 µM (inactive) | > 100 µM (inactive) | > 100 µM (inactive) | > 100 µM (inactive) | > 100 µM (inactive) | > 100 µM (inactive) | > 100 µM (inactive) | > 100 µM (inactive) | > 100 µM (inactive) | > 100 µM (inactive) | > 100 µM (inactive) | > 100 µM (inactive) | > 100 µM (inactive) | > 100 µM (inactive) | > 100 µM (inactive)
5 | Cc1ccc(C(=O)Nc2ccc(S(=O)(=O)O)c3cc(S(=O)(=O)O)cc(S(=O)(=O)O)c23)cc1NC(=O)c1cccc(NC(=O)Nc2cccc(C(=O)Nc3cc(C(=O)Nc4ccc(S(=O)(=O)O)c5cc(S(=O)(=O)O)cc(S(=O)(=O)O)c45)ccc3C)c2)c1 [SURAMIN] | 74.6 µM (inactive) | > 84.3 µM (inactive) | 97.9 µM (inactive) | > 69.5 µM (inactive) | 54.5 µM (inactive) | 69.3 µM (inactive) | 51.1 µM (inactive) | > 100 µM (inactive) | > 80 µM (inactive) | > 63.8 µM (inactive) | > 93.3 µM (inactive) | > 100 µM (inactive) | > 91.6 µM (inactive) | 58.9 µM (inactive) | > 84.7 µM (inactive) | > 88.1 µM (inactive) | 48.2 µM (inactive) | 89.3 µM (inactive) | > 100 µM (inactive) | 39.4 µM (inactive)
6 | CSc1nnc(SCc2nn3c(=O)cc(C)nc3s2)s1 | > 100 µM (inactive) | > 100 µM (inactive) | > 100 µM (inactive) | > 100 µM (inactive) | > 100 µM (inactive) | > 100 µM (inactive) | > 100 µM (inactive) | > 100 µM (inactive) | > 100 µM (inactive) | > 100 µM (inactive) | > 100 µM (inactive) | > 100 µM (inactive) | > 100 µM (inactive) | > 100 µM (inactive) | > 100 µM (inactive) | > 100 µM (inactive) | > 100 µM (inactive) | > 100 µM (inactive) | > 100 µM (inactive) | > 100 µM (inactive)
7 | CCOC(=O)C(C(=O)OCC)=C1NC2(c3ccccc3Nc3ccc(C)cc32)C(C#N)S1 (stereo not given) | 6.79 µM (inactive) | 10.3 µM (inactive) | 3.47 µM (inactive) | 8.83 µM (inactive) | 4.26 µM (inactive) | 7.36 µM (inactive) | 12.1 µM (inactive) | 10.6 µM (inactive) | 2.4 µM (inactive) | 11.5 µM (inactive) | 3.39 µM (inactive) | 2.32 µM (inactive) | 18.2 µM (inactive) | 8.07 µM (inactive) | 7.73 µM (inactive) | 13.4 µM (inactive) | 8.55 µM (inactive) | 6.59 µM (inactive) | 11.3 µM (inactive) | 6.28 µM (inactive)
8 | Nc1nn2c(=O)c3ccccc3nc2s1 | 42.5 µM (inactive) | > 100 µM (inactive) | > 100 µM (inactive) | > 100 µM (inactive) | > 100 µM (inactive) | 65.5 µM (inactive) | 17.5 µM (inactive) | 38.3 µM (inactive) | 23.3 µM (inactive) | 23.9 µM (inactive) | > 100 µM (inactive) | 32.4 µM (inactive) | > 100 µM (inactive) | > 100 µM (inactive) | 56 µM (inactive) | > 100 µM (inactive) | > 100 µM (inactive) | 19.2 µM (inactive) | > 100 µM (inactive) | 28.2 µM (inactive)
9 | O=C(O)CS(=O)(=O)C(c1ccccc1)c1ccccc1 | > 100 µM (inactive) | > 100 µM (inactive) | > 100 µM (inactive) | > 100 µM (inactive) | > 100 µM (inactive) | > 100 µM (inactive) | > 100 µM (inactive) | > 100 µM (inactive) | > 100 µM (inactive) | > 100 µM (inactive) | > 100 µM (inactive) | > 100 µM (inactive) | > 100 µM (inactive) | > 100 µM (inactive) | > 100 µM (inactive) | > 100 µM (inactive) | > 100 µM (inactive) | > 100 µM (inactive) | > 100 µM (inactive) | > 100 µM (inactive)
10 | COc1cccc(C2c3cc4c(cc3OC(Nc3ccccc3)C2C)OCO4)c1O (stereo not given) | 9.08 µM (inactive) | 7.82 µM (inactive) | 10.9 µM (inactive) | 11.1 µM (inactive) | 2.48 µM (inactive) | 8.95 µM (inactive) | 5.21 µM (inactive) | 2.42 µM (inactive) | 3.3 µM (inactive) | 12 µM (inactive) | 9.18 µM (inactive) | 6.43 µM (inactive) | 7.21 µM (inactive) | 13.9 µM (inactive) | 5.12 µM (inactive) | 10.3 µM (inactive) | 5.6 µM (inactive) | 4.88 µM (inactive) | 10.9 µM (inactive) | 7.06 µM (inactive)
11 | COc1ccc2c(c1OC)C(C(Cl)(Cl)Cl)N1CCc3cc4c(cc3C1=C2)OCO4 (stereo not given) | 15.2 µM (inactive) | 67.6 µM (inactive) | 22.9 µM (inactive) | 42.7 µM (inactive) | 23.9 µM (inactive) | 25.5 µM (inactive) | 32.7 µM (inactive) | 15.4 µM (inactive) | 16 µM (inactive) | 10.9 µM (inactive) | 7.43 µM (inactive) | 2.08 µM (inactive) | 12 µM (inactive) | 17.2 µM (inactive) | 3.94 µM (inactive) | 23.9 µM (inactive) | 46.5 µM (inactive) | 21.2 µM (inactive) | 7.16 µM (inactive) | 35.6 µM (inactive)
12 | COc1c2cc([N+](=O)[O-])cc1CNC(=O)CN1CCOCCOCCN(CCOCCOCC1)CC(=O)NC2 | > 100 µM (inactive) | > 100 µM (inactive) | > 100 µM (inactive) | > 100 µM (inactive) | > 100 µM (inactive) | > 100 µM (inactive) | > 100 µM (inactive) | > 100 µM (inactive) | > 100 µM (inactive) | > 100 µM (inactive) | > 100 µM (inactive) | 56.4 µM (inactive) | > 100 µM (inactive) | > 100 µM (inactive) | > 100 µM (inactive) | > 100 µM (inactive) | > 100 µM (inactive) | > 100 µM (inactive) | > 100 µM (inactive) | > 100 µM (inactive)
13 | CC1=C(C)C(=O)OC(C(C)(O)C2(O)CC3OC34C3CC(O)C56OC5C=CC(=O)C6(C)C3CCC42C)C1 (stereo not given) | 1.51 µM (inactive) | 2.73 µM (inactive) | 0.845 µM (active) | 2.36 µM (inactive) | 1.82 µM (inactive) | 1.72 µM (inactive) | 1.79 µM (inactive) | 1.61 µM (inactive) | 0.586 µM (active) | 4.76 µM (inactive) | 1.19 µM (inactive) | 1.24 µM (inactive) | 1.41 µM (inactive) | 2.59 µM (inactive) | 1.67 µM (inactive) | 3.9 µM (inactive) | 3.78 µM (inactive) | 3.03 µM (inactive) | 1.6 µM (inactive) | 0.341 µM (active)

Source: ChEMBL document CHEMBL1201862, “PubChem BioAssay data set” (2004)
